Measurements taken from US9505728B2, “Triazolone compounds and uses thereof” (INCEPTION 2, INC., priority 2012, dated 2016).

Each compound was assayed against T1, Human PPARα (Homo sapiens, UniProt Q07869) (assay: Human PPARα Reporter Assay (luciferase)). Conditions: human PPARα reporter cells, overnight incubation, antagonism; read-out: Luciferase IC50.
T1 construct: host or cells: proprietary non-human mammalian cells
T1 sequence (Q07869 1-468): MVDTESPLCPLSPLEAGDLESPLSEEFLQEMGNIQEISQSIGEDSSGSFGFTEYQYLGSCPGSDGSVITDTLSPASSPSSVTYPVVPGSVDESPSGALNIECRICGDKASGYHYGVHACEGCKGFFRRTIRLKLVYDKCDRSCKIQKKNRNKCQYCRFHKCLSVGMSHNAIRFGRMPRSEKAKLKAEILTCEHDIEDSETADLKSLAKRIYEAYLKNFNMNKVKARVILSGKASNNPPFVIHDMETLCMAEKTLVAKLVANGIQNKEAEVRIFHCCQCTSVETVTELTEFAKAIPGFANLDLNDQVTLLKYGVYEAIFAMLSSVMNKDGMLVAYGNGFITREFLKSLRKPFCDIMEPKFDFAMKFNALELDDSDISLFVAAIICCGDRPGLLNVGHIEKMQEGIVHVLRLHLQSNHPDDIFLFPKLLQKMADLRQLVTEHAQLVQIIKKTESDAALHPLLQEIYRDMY
Format: cell-based
Experimental: Human PPARα Reporter Assay
The screening of test compounds for agonist or antagonist activities against human PPARα receptors was performed using a commercial kit, Human PPARα Reporter Assay System (Indigo Biosciences, Cat. #IB00111).
This nuclear receptor assay system utilizes proprietary non-human mammalian cells engineered to provide constitutive, high-level expression of Human PPARα. Because these cells incorporate a PPARα-responsive luciferase reporter gene, quantifying expressed luciferase activity provides a sensitive surrogate measure of PPARα activity in the treated cells. The primary application of this reporter assay system is in the screening of test samples to quantify any functional activity, either agonist or antagonist, that they may exert against human PPARα.
Briefly, reporter cells are dispensed into wells of the assay plate and then immediately dosed with test compounds. Following an overnight incubation, the treatment media is discarded and Luciferase Detection Reagent (LDR) is added. The intensity of light emission from the ensuing luciferase reaction provides a sensitive measure that is directly proportional to the relative level of PPARα activation in the reporter cells.

Row | SMILES | IC50 [nM]
1 | CCn1c(CCCc2ccc(-c3ccc(OC)c(CCNS(=O)(=O)c4ccccc4)c3)cc2)nn(Cc2ccc(C(C)(C)C)cc2)c1=O [Example 182, 1-{[4-(tert-Butyl)phenyl]methyl}-4-ethyl-3-{3-[4-(4-methoxy-3-{2-[(phenylsulfonyl)amino]ethyl}phenyl)phenyl]propyl}-1,2,4-triazolin-5-one] | 414
2 | CCn1c(CCCc2ccc(-c3ccc(NS(=O)(=O)Cc4ccccc4)c(C)n3)cc2)nn(Cc2ccc(C(C)(C)C)cc2)c1=O [Example 125, 1-{[4-(tert-Butyl)phenyl]methyl}-4-ethyl-3-{3-[4-(6-methyl-5-{[benzylsulfonyl]amino}(2-pyridyl))phenyl]propyl}-1,2,4-triazolin-5-one] | 356
3 | CCn1c(CCCc2ccc(-c3cc(OC)c(N)cn3)cc2)nn(Cc2ccc(C(C)(C)C)cc2)c1=O [Example 111, 3-{3-[4-(5-Amino-4-methoxy(2-pyridyl))phenyl]propyl}-1-{[4-(tert-butyl)phenyl]methyl}-4-ethyl-1,2,4-triazolin-5-one] | 641
4 | CCn1c(CCCc2ccc(-c3ccc(OC)c(C(=O)O)n3)cc2)nn(Cc2ccc(C(C)(C)C)cc2)c1=O [Example 139, 6-(4-(3-(1-(4-(tert-Butyl)benzyl)-4-ethyl-5-oxo-4,5-dihydro-1H-1,2,4-triazol-3-yl)propyl)phenyl)-3-methoxypicolinic acid] | 89
5 | CCn1c(CCCc2ccc(-c3ccc(OC)c([C@@H](C)C(=O)O)c3)cc2)nn(Cc2ccc(C(C)(C)C)cc2)c1=O [Example 141, (R)-2-(4′-(3-(1-(4-(tert-Butyl)benzyl)-4-ethyl-5-oxo-4,5-dihydro-1H-1,2,4-triazol-3-yl)propyl)-4-methoxy-[1,1′-biphenyl]-3-yl)propanoic acid] | 29
6 | CCn1c(CCCc2ccc(-c3csc(C4(F)COC4)n3)cc2)nn(Cc2ccc(C(C)(C)C)cc2)c1=O [Example 201, 1-(4-(tert-Butyl)benzyl)-4-ethyl-3-(3-(4-(2-(3-fluorooxetan-3-yl)thiazol-4-yl)phenyl)propyl)-1H-1,2,4-triazol-5(4H)-one] | 533
7 | CCn1c(CCCc2ccc(-c3ccc(OC)c(CC(=O)O)c3)cn2)nn(Cc2ccc(C(C)(C)C)cc2)c1=O [Example 198, 2-(5-(6-(3-(1-(4-(tert-Butyl)benzyl)-4-ethyl-5-oxo-4,5-dihydro-1H-1,2,4-triazol-3-yl)propyl)pyridin-3-yl)-2-methoxyphenyl)acetic acid] | 623
8 | CCn1c(CCCc2ccc(-c3ccc(C(F)(F)F)c(NS(=O)(=O)c4ccccc4)n3)cc2)nn(Cc2ccc(C(C)(C)C)cc2)c1=O [Example 164, 1-{[4-(tert-Butyl)phenyl]methyl}-4-ethyl-3-[3-(4-{6-[(phenylsulfonyl)amino]-5-(trifluoromethyl)(2-pyridyl)}phenyl)propyl]-1,2,4-triazolin-5-one] | 20
9 | CCn1c(CCCc2ccc(-c3ccc(C4(C(=O)O)CC4)cc3)cc2)nn(Cc2ccc(C(C)(C)C)cc2)c1=O [Example 137, 1-(4′-(3-(1-(4-(tert-Butyl)benzyl)-4-ethyl-5-oxo-4,5-dihydro-1H-1,2,4-triazol-3-yl)propyl)-[1,1′-biphenyl]-4-yl)cyclopropanecarboxylic acid] | 676
10 | CCn1c(CCCc2ccc(-c3ccc(OC)c(NS(=O)(=O)c4ccccc4)n3)cc2)nn(Cc2ccc(C(C)(C)C)cc2)c1=O [Example 59, 1-{[4-(tert-Butyl)phenyl]methyl}-4-ethyl-3-[3-(4-{5-methoxy-6-[(phenylsulfonyl)amino](2-pyridyl)}phenyl)propyl]-1,2,4-triazolin-5-one] | 3
11 | CCn1c(CCCc2ccc(-c3ccc(C4(O)COC4)cc3)cc2)nn(Cc2ccc(C(C)(C)C)cc2)c1=O [Example 174, 1-(4-(tert-Butyl)benzyl)-4-ethyl-3-(3-(4′-(3-hydroxyoxetan-3-yl)-[1,1′-biphenyl]-4-yl)propyl)-1H-1,2,4-triazol-5(4H)-one] | 144
12 | CCn1c(CCCc2ccc(-c3ccc(OC)c(N(C)S(=O)(=O)c4ccccc4)n3)cc2)nn(Cc2ccc(C(C)(C)C)cc2)c1=O [Example 110, 1-{[4-(tert-Butyl)phenyl]methyl}-4-ethyl-3-[3-(4-{5-methoxy-6-[N-methyl(phenylsulfonyl)amino](2-pyridyl)}phenyl)propyl]-1,2,4-triazolin-5-one] | 534
13 | CCCCn1c(CCCc2ccc(-c3ccc(OCC)c(CC(=O)O)c3)cc2)nn(Cc2ccc(C(C)(C)C)cc2)c1=O [Example 69, 2-(4′-(3-(4-Butyl-1-(4-(tert-butyl)benzyl)-5-oxo-4,5-dihydro-1H-1,2,4-triazol-3-yl)propyl)-4-ethoxy-[1,1′-biphenyl]-3-yl)acetic acid] | 24
14 | CCn1c(CCCc2ccc(-c3ccc(NS(=O)(=O)c4ccc(Cl)cc4)cn3)cc2)nn(Cc2ccc(C(C)(C)C)cc2)c1=O [Example 90, 1-{[4-(tert-Butyl)phenyl]methyl}-3-{3-[4-(5-{[(4-chlorophenyl)sulfonyl]amino}(2-pyridyl))phenyl]propyl}-4-ethyl-1,2,4-triazolin-5-one] | 487

The next lines start with the values.

Row | IC50 [nM] | SMILES
15 | 685 | CCn1c(CCCc2ccc(-c3cccc(C(Cc4ccccc4)C(=O)O)c3)cc2)nn(Cc2ccc(C(C)(C)C)cc2)c1=O (centres unmarked) [Example 47, 2-(3-{4-[3-(1-{[4-(tert-Butyl)phenyl]methyl}-4-ethyl-5-oxo(1,2,4-triazolin-3-yl))propyl]phenyl}phenyl)-3-phenylpropanoic acid]
16 | 16 | CCCOc1ccc(-c2ccc(CCCc3nn(Cc4ccc(C(C)(C)C)cc4)c(=O)n3CC)cc2)cc1CC(=O)O [Example 94, 2-(4′-(3-(1-(4-(tert-Butyl)benzyl)-4-ethyl-5-oxo-4,5-dihydro-1H-1,2,4-triazol-3-yl)propyl)-4-propoxy-[1,1′-biphenyl]-3-yl)acetic acid]
17 | 11 | CCn1c(CCCc2ccc(-c3ccc(OC(F)(F)F)c(CC(=O)O)c3)cc2)nn(Cc2ccc(C(C)(C)C)cc2)c1=O [Example 130, 2-(4′-(3-(1-(4-(tert-Butyl)benzyl)-4-ethyl-5-oxo-4,5-dihydro-1H-1,2,4-triazol-3-yl)propyl)-4-(trifluoromethoxy)-[1,1′-biphenyl]-3-yl)acetic acid]
18 | 579 | CCn1c(CCCc2ccc(-c3cccc(CC(=O)O)c3)cc2)nn(Cc2ccc(C(F)(F)F)cc2)c1=O [Example 24, 2-(4′-(3-(4-Ethyl-5-oxo-1-(4-(trifluoromethyl)benzyl)-4,5-dihydro-1H-1,2,4-triazol-3-yl)propyl)-[1,1′-biphenyl]-3-yl)acetic acid]
19 | 1830 | CCn1c(CCCc2ccc(-c3cc(CC(=O)O)ccc3OC)cc2)nn(Cc2ccc(C(C)(C)C)cc2)c1=O [Example 20, 2-(4′-(3-(1-(4-(tert-Butyl)benzyl)-4-ethyl-5-oxo-4,5-dihydro-1H-1,2,4-triazol-3-yl)propyl)-6-methoxy-[1,1′-biphenyl]-3-yl)acetic acid]
20 | 1450 | CCn1c(CCCc2ccc(-c3cccc(/C=C/C(=O)O)c3)cc2)nn(Cc2ccc(C(C)(C)C)cc2)c1=O [Example 34, 3-(4′-(3-(1-(4-(tert-Butyl)benzyl)-4-ethyl-5-oxo-4,5-dihydro-1H-1,2,4-triazol-3-yl)propyl)-[1,1′-biphenyl]-3-yl)acrylic acid]
